This note sets out measurements from PubChem BioAssay (NCI).

Several values for one entry are separate records, joined by “and”; a condition that tells them apart may be missing. Identical values can stand only once.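 The compound was tested at five concentrations on cells cultured in 96-well plates, with a 48-hour exposure period. Abbreviation: GI50, concentration required for 50% inhibition of growth. TGI: total growth inhibition.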

Test systems include HS 578T breast; T-47D breast; NCI/ADR-RES ovarian; MCF7 breast.
What all share (experiment): NCI tumour cell line growth inhibition, 48 h

As to `Cc1c(Cl)c(=O)oc2cc(OC/C=C3\CCC(=O)O3)ccc12`, the GI50 is 24.2 µM in the test on HS 578T breast, 13.6 µM with T-47D breast, 24.1 µM in the test on NCI/ADR-RES ovarian and 13.4 µM in the test with MCF7 breast. Moreover, the TGI in the test with HS 578T breast is 77.4 µM; in the test on T-47D breast, 36.2 µM; in the test on NCI/ADR-RES ovarian, 59.4 µM; in the test with MCF7 breast, 37.8 µM.
For `O=C1Nc2cc(-c3cccc(O)c3)ccc2/C1=C/c1ccc[nH]1`, the GI50 was 1.51 µM in the test with HS 578T breast, 0.17 µM with T-47D breast, 2.51 µM in the test with NCI/ADR-RES ovarian and 0.257 µM in the test on MCF7 breast. The TGI with HS 578T breast is 5.73 µM; with T-47D breast, 0.472 µM; with NCI/ADR-RES ovarian it was 12.5 µM; in the test on MCF7 breast it was 2.44 µM.
Regarding `CCC1C(C)C=NN1c1nc(N)nc(C(C#N)=Nc2ccc(N(C)C)cc2)n1` (configuration not stated), the GI50 was 23.5 µM in the test with T-47D breast, 9.88 µM in the test on NCI/ADR-RES ovarian and 9.76 µM in the test on MCF7 breast. In addition, the TGI with T-47D breast is more than 50 µM; in the test on NCI/ADR-RES ovarian it was 22 µM; with MCF7 breast, 17.8 µM.
Regarding `O=[N+]([O-])c1cccc(-c2nc(-c3ccc(Cl)cc3Cl)cn2-c2ccccc2)c1`, the GI50 in the test on HS 578T breast was 0.428 µM; in the test with T-47D breast, 0.922 µM; with NCI/ADR-RES ovarian, 1.56 µM; with MCF7 breast it was 0.909 µM. In addition, the TGI was determined as 1.15 µM in the test on HS 578T breast, 2.9 µM in the test with T-47D breast, 15.6 µM in the test on NCI/ADR-RES ovarian and 4.02 µM with MCF7 breast.
With `CN1CCN(c2ccc(OC(F)(F)F)c(Nc3ncc4c(n3)-c3c(c(C(N)=O)nn3CCO)CC4)c2)CC1`, the GI50 in the test on HS 578T breast is 0.164 µM and 0.184 µM; with T-47D breast it was 0.944 µM and 0.538 µM; with NCI/ADR-RES ovarian it was 1.19 µM and 1.04 µM; in the test with MCF7 breast, 0.0235 µM and 0.0357 µM. Besides, the TGI was 18.5 µM and > 5 µM with HS 578T breast; 40.8 µM and > 10 µM with T-47D breast; more than 62.6 µM in the test with NCI/ADR-RES ovarian; 15.7 µM and > 10 µM in the test on MCF7 breast.
As for `O=C1CC[C@H](N2Cc3c(OCc4ccc(CN5CCOCC5)cc4)cccc3C2=O)C(=O)N1`, the GI50 with HS 578T breast, in the test on T-47D breast, with NCI/ADR-RES ovarian and in the test on MCF7 breast was more than 100 µM each time. Further, the TGI with HS 578T breast, in the test with T-47D breast, in the test with NCI/ADR-RES ovarian and in the test with MCF7 breast was more than 100 µM each time.
Turning to `CCN(CC)c1c(-c2ccccc2)n[nH]c1C(=O)OC`, the GI50 with HS 578T breast is 17 µM; with T-47D breast it was 17.5 µM; in the test with NCI/ADR-RES ovarian, 19.2 µM; in the test on MCF7 breast it was 23.1 µM. Besides, the TGI in the test on HS 578T breast was 49.4 µM; with T-47D breast, 64.8 µM; with NCI/ADR-RES ovarian, 37.4 µM; with MCF7 breast, 54.4 µM.
On to `Cc1ccc(C(=O)NCCCOc2ccc(N3C(N)=NC(N)=NC3(C)C)cc2Cl)cc1S(=O)(=O)F`, for which the GI50 in the test with HS 578T breast is more than 100 µM; in the test on T-47D breast, more than 100 µM; in the test on NCI/ADR-RES ovarian, more than 100 µM; with MCF7 breast it was 22.4 µM. In addition, the TGI in the test with HS 578T breast, with T-47D breast, in the test on NCI/ADR-RES ovarian and with MCF7 breast was more than 100 µM in each case.
Regarding `O=C1/C=C/[C@@H](O)[C@@H]2C[C@@H](O)C[C@H]2/C=C/CCC[C@H](CCc2ccc3ncccc3c2)O1`, the GI50 in the test with HS 578T breast is 1.23 µM; in the test on T-47D breast it was 0.312 µM; in the test on NCI/ADR-RES ovarian, 0.396 µM; with MCF7 breast, 0.27 µM. The TGI in the test with HS 578T breast is more than 100 µM; with T-47D breast, 8.1 µM; with NCI/ADR-RES ovarian, 9.05 µM; with MCF7 breast it was more than 100 µM.
Turning to `Cc1cc(-c2nnc(/C=C/c3ccc4c(c3)OCO4)o2)n[nH]1`, the GI50 was 9.64 µM in the test with HS 578T breast, 22 µM with T-47D breast, 7.33 µM in the test on NCI/ADR-RES ovarian and 15.1 µM in the test on MCF7 breast. Further, the TGI with HS 578T breast was 47 µM; with T-47D breast it was more than 50 µM; in the test on NCI/ADR-RES ovarian it was 21.4 µM; with MCF7 breast, more than 50 µM.
With `[N-]=[N+]=NCCCn1c2c(c3ccc([N+](=O)[O-])cc3c1=O)C(=O)c1cc3c(cc1-2)OCO3`, the values for the GI50 in the test with T-47D breast, with NCI/ADR-RES ovarian and in the test on MCF7 breast were 0.656 µM, less than 0.0114 µM and 0.158 µM, respectively. Besides, the results for the TGI in the test on T-47D breast, in the test on NCI/ADR-RES ovarian and in the test with MCF7 breast were more than 100 µM, less than 0.041 µM and 7.68 µM, respectively.
Regarding `Cc1cc(C(=O)/C=C/c2ccc[nH]2)ccc1-n1ccc(C(F)(F)F)n1`, the GI50 in the test on HS 578T breast is 11.1 µM; with T-47D breast it was 4.78 µM; in the test on NCI/ADR-RES ovarian, 17.1 µM; with MCF7 breast it was 5.53 µM. For the same compound, the TGI in the test with HS 578T breast, with T-47D breast, with NCI/ADR-RES ovarian and in the test with MCF7 breast was more than 100 µM each time.
As to `NCCCCCNc1noc(Cc2c[nH]c3cc(Br)ccc23)n1`, the values for the GI50 with HS 578T breast, in the test on T-47D breast and with MCF7 breast were 1.99 µM, 5.15 µM and 3.42 µM, respectively. Besides, the TGI was 22.1 µM with HS 578T breast, 30.1 µM in the test with T-47D breast and 16.3 µM with MCF7 breast.
With `C[C@]12CC[C@@H]3c4ccc(O)cc4CC[C@H]3[C@@H]1CC[C@@H]2NS(=O)(=O)c1ccc(Br)cc1`, the GI50 in the test on HS 578T breast is 2.05 µM; with T-47D breast it was 3.35 µM; with NCI/ADR-RES ovarian, 2.81 µM; in the test on MCF7 breast, 2.26 µM. Further, the TGI is 6.15 µM in the test on HS 578T breast, 10.3 µM in the test on T-47D breast, 8.79 µM in the test with NCI/ADR-RES ovarian and 4.64 µM in the test on MCF7 breast.
In the case of `CO[C@@H]1CCN(c2nccc(Nc3cc4c(C(C)C)ccc(N5CC(CS(C)(=O)=O)[C@H]5C)c4cn3)n2)C[C@@H]1F` (some centres not stated), the GI50 in the test with HS 578T breast is 4.26 µM; in the test with T-47D breast it was 2.47 µM; with NCI/ADR-RES ovarian, 2.81 µM; with MCF7 breast it was 3.15 µM. In addition, the TGI came out at 41.5 µM with HS 578T breast, 13.4 µM in the test with T-47D breast, 9.74 µM in the test with NCI/ADR-RES ovarian and 14.8 µM in the test on MCF7 breast.
For `CC(=O)Oc1ccc2c(c1)[C@@]1(C)CCCC(C)(C)[C@@H]1CC2`, the GI50 in the test on HS 578T breast is 24.7 µM; with T-47D breast it was 37.5 µM; in the test on NCI/ADR-RES ovarian it was 26 µM; with MCF7 breast it was 34.6 µM. In addition, the TGI with HS 578T breast was 56.5 µM; in the test with T-47D breast, more than 100 µM; in the test with NCI/ADR-RES ovarian, 49.9 µM; with MCF7 breast, more than 100 µM.
